Values quoted from earlier work, collected in patent publication US7897154B2, “Dermal drops” (ABR, LLC, priority 2006, dated 2011).

Experiments:
[1] = test system: pre-adipocyte
[2] = test system: H. ras transformed rat2 cells
[3] = animal models of non-insulin-dependent diabetes

**Q.** Which pre-adipocyte differentiation [1] does the source give for dehydrotrametenolic acid [DHTA] here?
**A.** Its pre-adipocyte differentiation is “induce pre-adipocyte differentiation”.

**Q.** And the apoptosis [2]?
**A.** The apoptosis was “induce apoptosis”.

**Q.** What about the growth [2] of the same substance?
**A.** Its growth is “inhibit the growth of H. ras”.

**Q.** What about the sensitization to insulin [3] of the same substance?
**A.** Its sensitization to insulin is “sensitize animal models of non-insulin-dependent diabetes to insulin”.
